{"source": "patent US6071896A", "about": "“Suppression of thromboxane levels by percutaneous administration of aspirin” (Gundersen Clinic, Ltd., priority 1998, dated 2000)", "key": {"[1]": {"system": "PGI2 formation in response to intravenous bradykinin", "conditions": "on average; cited from earlier work"}, "[2]": {"system": "PGI2 formation in response to intravenous bradykinin", "test": "Urinary PGI-M excretion at rest and after bradykinin infusion, Example 3", "type": "in vivo, human", "conditions": "4 subjects; intravenous 100-800 ng/kg/min", "description": "In an additional 4 subjects, we examined the increase in PGI2 formation in response to intravenous bradykinin prior to and following oral aspirin 75 mg or dermal aspirin 750 mg daily for 14 days. The protocol for bradykinin has been described previously [Clark, N.Engl.J.Med 325:1137 (1991)]. Volunteers were admitted after an overnight fast to the Clinical Research Center. Blood samples were obtained for serum TXB2 and the subject asked to void. Through a peripheral vein, 1 liter of normal saline was infused over 1 hour. After a further hour, bradykinin was infused in incremental doses of 100-800 ng/kg/min, each over 15 mm. The infusion was continued at the maximum tolerated dose for a total period of 2 hr. Blood pressure and heart rate were monitored continuously. Urine was collected in separate 2 hr aliquots prior to, during and following the bradykinin infusion.\n^1 The excretion of TXM and PGIM before and following dermal aspirin\n750 mg/day or oral aspirin 75 mg/day for 10 days. Urine samples were\ncollected over 2 hr before (rest) and following the administration of […]"}}, "note": "Ends that are not written are not given here."}
{"sequence": "RPPGFSPFR [bradykinin]", "values": [{"measurement": "Increase in PGI2 biosynthesis by bradykinin, previous studies", "setting": "[1]", "value": "2-6 fold"}, {"measurement": "Increase in PGI-M excretion induced by bradykinin", "setting": "[2]", "value": "5.1±6", "unit": "fold"}]}
